Experimental data taken from ChEMBL document CHEMBL2331254, “Pyrrolopyrimidine inhibitors of DNA gyrase B (GyrB) and topoisomerase IV (ParE), Part II: development of inhibitors with broad spectrum, Gram-negative antibacterial activity” (Bioorg Med Chem Lett, 2013).
In brackets after ≈: the same amount, converted by molar mass.

Experiments:
Pseudomonas aeruginosa = experiment: Antibacterial activity against Pseudomonas aeruginosa PAO1 by broth microdilution method; assay type: functional
Staphylococcus aureus [1] = experiment: Antibacterial activity against Staphylococcus aureus ATCC 13709 by broth microdilution method; assay type: functional
Escherichia coli [2] = experiment: Antibacterial activity against wild type Escherichia coli ATCC 25922 by broth microdilution method in presence of 20% mouse serum; assay type: functional
Streptococcus pneumoniae = experiment: Antibacterial activity against Streptococcus pneumoniae ATCC 51916 by broth microdilution method; assay type: functional
[3] = Inhibition of Escherichia coli GyrB assessed as release of inorganic phosphate from ATP hydrolysis after 30 mins by coupled spectrophotometric assay
Acinetobacter baumannii = experiment: Antibacterial activity against Acinetobacter baumannii ATCC 19606 by broth microdilution method; assay type: functional; settings: ATCC 19606 = CIP 70.34 = JCM 6841
Escherichia coli [4] = experiment: Antibacterial activity against permeabilized Escherichia coli IBAS849 by broth microdilution method; assay type: functional
[5] = Inhibition of Francisella tularensis GyrB assessed as release of inorganic phosphate from ATP hydrolysis after 30 mins by coupled spectrophotometric assay
Escherichia coli [6] = experiment: Antibacterial activity against Escherichia coli BW25113 harboring deltatolC by broth microdilution method; assay type: functional
Klebsiella pneumoniae = experiment: Antibacterial activity against Klebsiella pneumoniae ATCC 700603 by broth microdilution method; assay type: functional
Escherichia coli [7] = experiment: Antibacterial activity against wild type Escherichia coli ATCC 25922 by broth microdilution method; assay type: functional
Haemophilus influenzae = experiment: Antibacterial activity against Haemophilus influenzae ATCC 49247 by broth microdilution method; assay type: functional
Staphylococcus aureus [8] = experiment: Antibacterial activity against Staphylococcus aureus ATCC 13709 by broth microdilution method in presence of 20% mouse serum; assay type: functional
[9] = Inhibition of Francisella tularensis parE assessed as release of inorganic phosphate from ATP hydrolysis after 30 mins by coupled spectrophotometric assay
[10] = Inhibition of Escherichia coli parE assessed as release of inorganic phosphate from ATP hydrolysis after 30 mins by coupled spectrophotometric assay

SMILES	MIC (Pseudomonas aeruginosa) [µg/mL]	MIC (Staphylococcus aureus [1]) [µg/mL]	MIC (Escherichia coli [2]) [µg/mL]	MIC (Streptococcus pneumoniae) [µg/mL]	Ki [3] [nM]	MIC (Acinetobacter baumannii) [µg/mL]	MIC (Escherichia coli [4]) [µg/mL]	Ki [5] [nM]	MIC (Escherichia coli [6]) [µg/mL]	MIC (Klebsiella pneumoniae) [µg/mL]	MIC (Escherichia coli [7]) [µg/mL]	MIC (Haemophilus influenzae) [µg/mL]	MIC (Staphylococcus aureus [8]) [µg/mL]	Ki [9] [nM]	Ki [10] [nM]
CCc1[nH]c2nc(Oc3cncnc3)nc(N3C[C@@H]4[C@@H](N)[C@@H]4C3)c2c1Cl	32 (≈ 86.1 µM)	1 (≈ 2.69 µM)	2	2 (≈ 5.38 µM)	0.4	16 (≈ 43 µM)	1 (≈ 2.69 µM)	< 0.3	2 (≈ 5.38 µM)	64 (≈ 172 µM)	4 (≈ 10.8 µM)	4 (≈ 10.8 µM)	2	1.8	3.4
CCc1[nH]c2nc(Sc3cnc4cccnc4c3)nc(N3C[C@@H]4[C@@H](N)[C@@H]4C3)c2c1Cl	8 (≈ 18.3 µM)	≤ 0.06	8	0.13 (≈ 0.297 µM)	< 0.3	8 (≈ 18.3 µM)	1 (≈ 2.28 µM)	–	0.25 (≈ 0.571 µM)	> 64	4 (≈ 9.13 µM)	4 (≈ 9.13 µM)	0.5	0.6	< 1
